What follows are compounds tested against T1, Recombinant human LOXL2 (lysyl oxidase like 2) (Homo sapiens, UniProt Q9Y4K0) (assay: LOXL2 inhibition assay (fluorometric, cadaverine/Amplex Red/HRP)). Conditions: IC50 class; recombinant human LOXL2, cadaverine substrate; read-out: Activity Range LOXL2.
T1 construct: purchased R&D systems
T1 sequence (Q9Y4K0 26-774): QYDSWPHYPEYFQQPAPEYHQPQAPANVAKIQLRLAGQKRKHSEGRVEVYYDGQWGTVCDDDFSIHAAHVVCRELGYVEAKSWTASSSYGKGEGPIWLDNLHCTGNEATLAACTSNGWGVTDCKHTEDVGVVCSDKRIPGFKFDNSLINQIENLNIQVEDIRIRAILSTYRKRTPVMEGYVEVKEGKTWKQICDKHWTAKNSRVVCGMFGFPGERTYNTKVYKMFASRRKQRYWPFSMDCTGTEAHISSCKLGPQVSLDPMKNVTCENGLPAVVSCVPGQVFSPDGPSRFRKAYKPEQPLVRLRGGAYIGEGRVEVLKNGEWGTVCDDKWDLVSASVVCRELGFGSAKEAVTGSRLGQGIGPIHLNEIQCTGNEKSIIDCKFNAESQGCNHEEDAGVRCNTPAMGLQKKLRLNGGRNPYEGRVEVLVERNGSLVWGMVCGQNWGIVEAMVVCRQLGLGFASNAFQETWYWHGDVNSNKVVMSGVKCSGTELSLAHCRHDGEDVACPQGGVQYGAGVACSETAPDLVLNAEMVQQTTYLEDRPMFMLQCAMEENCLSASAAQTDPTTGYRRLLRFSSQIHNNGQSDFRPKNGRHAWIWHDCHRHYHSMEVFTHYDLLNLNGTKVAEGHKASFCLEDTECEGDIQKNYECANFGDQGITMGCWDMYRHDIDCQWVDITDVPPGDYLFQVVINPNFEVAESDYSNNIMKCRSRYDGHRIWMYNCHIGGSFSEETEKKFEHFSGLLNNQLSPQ
Type: biochemical
In short: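 Both enzymes assayed in 1.2 M urea, 50 mM sodium borate pH 8.0, 10 mM CaCl, with 30 min compound–enzyme preincubation at 37° C before cadaverine/Amplex Red/HRP addition. Fluorescence followed 60 min at 37° C; linear-slope rates, background-subtracted, as % of DMSO control, fitted by 4-parameter variable-slope curve (bottom fixed at 0).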

Structure (SMILES)	IC50
NCc1ccnc(S(=O)(=O)N2C[C@@H](C(=O)N3CCS(=O)(=O)CC3)C[C@@H](c3ccccc3)C2)c1 (racemic) [Example 134, cis-(1-((4-(Aminomethyl)pyridin-2-yl)sulfonyl)-5-phenylpiperidin-3-yl)(1,1-dioxidothiomorpholino)methanone 2,2,2-trifluoroacetate]	≤ 500 nM
CN(C)C(=O)[C@H]1C[C@@H](C2CCCCC2)CN(S(=O)(=O)c2cccc(CN)c2)C1 (relative stereo) [Example 138, cis-1-((3-(Aminomethyl)phenyl)sulfonyl)-5-cyclohexyl-N,N-dimethylpiperidine-3-carboxamide 2,2,2-trifluoroacetate]	≤ 500 nM
CS(=O)(=O)[C@@H]1C[C@@H](S(=O)(=O)c2cccc(CN)c2)CN(c2ccccc2)C1 (racemic) [Example 79, trans-(3-((-5-(Methylsulfonyl)-1-phenylpiperidin-3-yl)sulfonyl)phenyl)methanamine]	≤ 500 nM
CS(=O)(=O)[C@H]1C[C@@H](S(=O)(=O)c2cccc(CN)c2)CN(c2ccccc2F)C1 (racemic) [Example 92, cis-(3-((-1-(2-Fluorophenyl)-5-(methylsulfonyl)piperidin-3-yl)sulfonyl)phenyl)methanamine 2,2,2-trifluoroacetate]	≤ 500 nM
CS(=O)(=O)N1CCN(C(=O)[C@H]2C[C@@H](c3ccccc3F)CN(S(=O)(=O)c3ccc(CN)s3)C2)CC1.O=C(O)C(F)(F)F (racemic) [Example 91, cis-(1-((5-(Aminomethyl)thiophen-2-yl)sulfonyl)-5-(2-fluorophenyl)piperidin-3-yl)(4-(methylsulfonyl)piperazin-1-yl)methanone 2,2,2-trifluoroacetate]	≤ 500 nM
NCc1ccc(S(=O)(=O)N2C[C@H](C(=O)N3CCS(=O)(=O)CC3)C[C@@H](c3ccccc3)C2)s1.O=C(O)C(F)(F)F (racemic) [Example 75B, trans-(1-((5-(Aminomethyl)thiophen-2-yl)sulfonyl)-5-phenylpiperidin-3-yl)(1,1-dioxidothiomorpholino)methanone 2,2,2-trifluoroacetate]	≤ 500 nM
NCc1ccnc(S(=O)(=O)N2C[C@H](C(=O)N3CCOCC3)C[C@H](c3ccccc3)C2)c1 [Example 133B, ((3R,5R)-1-((4-(aminomethyl)pyridin-2-yl)sulfonyl)-5-phenylpiperidin-3-yl)(morpholino)methanone 2,2,2-trifluoroacetate]	≤ 500 nM
NCc1ccnc(S(=O)(=O)N2C[C@@H](C(=O)N3CCOCC3)C[C@@H](c3ccccc3)C2)c1 [Example 133A, ((3S,5S)-1-((4-(aminomethyl)pyridin-2-yl)sulfonyl)-5-phenylpiperidin-3-yl)(morpholino)methanone 2,2,2-trifluoroacetate]	≤ 500 nM
NCc1cccc(S(=O)(=O)N2C[C@H](C(=O)N3CCS(=O)(=O)CC3)C[C@@H](c3ccccc3)C2)n1 (racemic) [Example 115T, trans-(1-((6-(Aminomethyl)pyridin-2-yl)sulfonyl)-5-phenylpiperidin-3-yl)(1,1-dioxidothiomorpholino)methanone 2,2,2-trifluoroacetate]	1000 to 30000 nM
NCc1ccnc(S(=O)(=O)N2C[C@@H](C(=O)N3CCOCC3)C[C@@H](c3ccccc3)C2)c1 (relative stereo) [Example 133, cis-(1-((4-(Aminomethyl)pyridin-2-yl)sulfonyl)-5-phenylpiperidin-3-yl)(morpholino)methanone 2,2,2-trifluoroacetate]	≤ 500 nM
NCc1ccc(S(=O)(=O)N2C[C@H](C(=O)N3CCOCC3)C[C@H](c3ccccc3)C2)s1 [Example 13B, ((3R,5R)-1-((5-(aminomethyl)thiophen-2-yl)sulfonyl)-5-phenylpiperidin-3-yl)(morpholino)methanone]	≤ 500 nM
CS(=O)(=O)N1C[C@H](Oc2cccc(CN)c2)C[C@H](c2ccccc2F)C1 (racemic) [Example 70, cis-(3-((5-(2-Fluorophenyl)-1-(methylsulfonyl)piperidin-3-yl)oxy)phenyl)methanamine 2,2,2-trifluoroacetate]	≤ 500 nM
NCc1cccc(S(=O)(=O)N2C[C@@H](C(=O)N3CCS(=O)(=O)CC3)C[C@@H](C3CCCCC3)C2)c1 (racemic) [Example 140, cis-(1-((3-(Aminomethyl)phenyl)sulfonyl)-5-cyclohexylpiperidin-3-yl)(1,1-dioxidothiomorpholino)methanone]	500 to 1000 nM
NCc1ccnc(S(=O)(=O)N2C[C@@H](C(=O)N3CCS(=O)(=O)CC3)C[C@@H](C3CCCCC3)C2)c1.O=C(O)C(F)(F)F (racemic) [Example 146, cis-(1-((4-(Aminomethyl)pyridin-2-yl)sulfonyl)-5-cyclohexylpiperidin-3-yl)(1,1-dioxidothiomorpholino)methanone 2,2,2-trifluoroacetate]	≤ 500 nM
NCc1cccc(S(=O)(=O)N2C[C@@H](C(=O)N3CCOCC3)C[C@@H](C3CCCCC3)C2)c1 (racemic) [Example 139, cis-(1-((3-(Aminomethyl)phenyl)sulfonyl)-5-cyclohexylpiperidin-3-yl)(morpholino)methanone]	500 to 1000 nM
NCc1ccc(S(=O)(=O)N2C[C@@H](C(=O)N3CCOCC3)C[C@@H](C3CCCCC3)C2)s1.O=C(O)C(F)(F)F (racemic) [Example 120, cis-(1-((5-(Aminomethyl)thiophen-2-yl)sulfonyl)-5-cyclohexylpiperidin-3-yl)(morpholino)methanone 2,2,2-trifluoroacetate]	≤ 500 nM
CN(C)C(=O)[C@H]1C[C@@H](C2CCCCC2)CN(S(=O)(=O)c2cc(CN)ccn2)C1 (racemic) [Example 144, cis-1-((4-(Aminomethyl)pyridin-2-yl)sulfonyl)-5-cyclohexyl-N,N-dimethylpiperidine-3-carboxamide 2,2,2-trifluoroacetate]	≤ 500 nM
NCc1cccc(S(=O)(=O)N2C[C@H](C(=O)N3CCS(=O)(=O)CC3)C[C@@H](c3ccccc3)C2)c1 (racemic) [Example 85, trans-(1-((3-(Aminomethyl)phenyl)sulfonyl)-5-phenylpiperidin-3-yl)(1,1-dioxidothiomorpholino)methanone 2,2,2-trifluoroacetate]	≤ 500 nM
CS(=O)(=O)[C@H]1C[C@@H](S(=O)(=O)c2cccc(CN)c2)CN(c2ccccc2)C1 (racemic) [Example 23, cis-(3-((-5-(Methylsulfonyl)-1-phenylpiperidin-3-yl)sulfonyl)phenyl)methanamine]	≤ 500 nM
CN(C)C(=O)N1C[C@@H](c2ccccc2)C[C@@H](S(=O)(=O)c2cccc(CN)c2)C1.O=C(O)C(F)(F)F (racemic) [Example 74, cis-3-((3-(Aminomethyl)phenyl)sulfonyl)-N,N-dimethyl-5-phenylpiperidine-1-carboxamide 2,2,2-trifluoroacetate]	≤ 500 nM
NCc1ccnc(S(=O)(=O)N2C[C@@H](C(=O)N3CCOCC3)C[C@@H](C3CCCCC3)C2)c1 (racemic) [Example 145, cis-(1-((4-(Aminomethyl)pyridin-2-yl)sulfonyl)-5-cyclohexylpiperidin-3-yl)(morpholino)methanone 2,2,2-trifluoroacetate]	≤ 500 nM
